Assay: log P(o/w), n-octanol/water two phase system
Type: physicochemical
Excerpt: *log P(o/w) is the decimal logarithm of the distribution coefficient
of a substance in the noctanol/water two phase system.

Row | Structure (SMILES) | logP
1 | CN(C)c1ccc(C=C(C#N)c2nc3cc(C(=O)O)ccc3o2)cc1 [Dye I-1] | < 5
2 | Cc1cc(N(CC(=O)OC(C)COC(C)COC(C)(C)C)CC(=O)OC(C)COC(C)COC(C)(C)C)ccc1C=C(C#N)c1nc2cc(C(=O)O)ccc2o1 (centres unmarked) [Dye I-6] | < 5
3 | CCOCCOCCN(CCOCCOCC)c1ccc(C=C(C#N)c2nc3cc(S(=O)(=O)NC(=O)CC)ccc3o2)cc1 [Dye I-10] | < 5
4 | CCOCCOCCN(CCOCCOCC)c1ccc(C=C(C#N)c2nc3cc(S(=O)(=O)NC(=O)CC)ccc3s2)cc1 [Dye I-22] | < 5

Now from value to compound:

Row | logP | Structure (SMILES)
5 | < 5 | CCCCOC(=O)CN(CC(=O)OCCCC)c1ccc(C=C(C#N)C(=O)c2ccc(NS(C)(=O)=O)cc2)c(C)c1 [GF-2]
6 | < 5 | CCCCS(=O)(=O)Nc1ccc(C2=C(C#N)C(=O)OC2=Cc2ccco2)cc1 [GF-3]
7 | > 5 | CCCCCCCCCCCCCCCCS(=O)(=O)Nc1ccc2nc(C(C#N)=Cc3ccc(N(CC)CC)cc3C)sc2c1 [GF-4]
8 | > 5 | CCCCCCCCCCCCNc1cc(C)c(C=C(C#N)c2nc3ccc(NS(C)(=O)=O)cc3o2)cc1C [GF-5]

From US6057085A, “Color photographic recording material” (Agfa-Gevaert NV, priority 1997, dated 2000)
